Publication PMC6906394, “Radiomodifying action, Pharmacokinetic and Biodistribution of Ethyl 3, 4, 5-trihydroxybenzoate-Implication in development of radiomitigator” (Scientific Reports, 2019)
“Also recorded” adds a separate entry of the source. Like-named read-outs stand apart in the source and are kept apart here.

Key:
[1] = Plasma pharmacokinetics of GAE after single oral administration (HPLC, non-compartmental); type: in vivo, mice; conditions: 200 mg/kg b.wt oral; for Cmax / AUC(0-t) / Tmax / half-life / AUC: 200 mg/kg; for Kel: in 1/min; for AUC: read-out: AUC0-α (converted)
Method: The developed method was successfully employed to determine GAE concentration in mouse plasma and tissue samples after single oral administration of GAE at a single dose (200 mg/kg body weight) in GAE and Radiation + GAE (R + GAE) treated group. […] Pharmacokinetic parameter analysis is presented in (Table 2, Table 3).
(§1) Black C57BL/6 male mice weighing 28–30 g were maintained at the Institutional Animal Experimental Facility. Animals were fed according to standard chow diet having free access to food and water ad libitum. The environmental condition was maintained at room temperature (22 ± 2 °C), relative humidity (45–60%) and 12 h dark/light cycle controlled facility. In this study, mice were randomly assigned to four different groups (n = 21) i.e untreated control (UC), GAE-treated (GAE), Radiation + GAE (R + GAE), Radiation group (R). Mice fasted overnight with free access to water before being dosed. Isolated GAE from leaves was dissolved with distilled water and ethanol in (7:3 v/v) and administered orally at a dose of 200 mg/kg body weight to GAE-treated and R + GAE treated groups only. The experiment was carried out in accordance to regulation and guideline of the, Committee for the purpose of control and supervision of Experiments on animals (CPCSEA), and study was approved by Institutional Animal Experimental Committee (IAEC), Institute of Nuclear Medicine & Allied Science, Delhi, India.
Group I untreated control (UC), Group II GAE-treated (GAE), Group III Radiation + GAE (R + GAE) and Group IV Radiation (R) exposed. The GAE was administered orally 15 min post irradiation. The whole-body radiation (5 Gy) was carried out using Bhabahtron II, Telecobalt machine, Panacea medical technology, Bangalore. The mice exposed at a dose rate of 0.961 Gy/min at field 35 × 35 cm^2 and the distance maintained from the source was 80 cm.
Blood and tissues samples of mice were collected at 15 min, 30 min, 1 h, 2 h, 4 h, 8 h and 24 h after GAE administration (3mice per time). Blood was obtained from retro orbital plexus of mice and collected in heparinized eppendorf tubes, followed by centrifugation at 2500 g for 15 min. The resulting plasma layer was separated and stored in tubes at −20 °C for further analysis. Tissue samples (brain, heart, liver, kidney, and spleen) were weighed and put into the normal saline solution to remove the blood by blotting on filter paper and were minced and homogenized with physiological saline solution (1:2 w/v) thoroughly in an ice bath. The homogenates were stored at −80 °C until the analysis.
Aliquot of plasma sample (100 µL) dispensed in standing vial deproteinized with ACN (200 µL) containing the IS (100 ng/mL) and centrifuged at 2500 g for 15 min at 4 °C. The supernatant was collected transferred to a clean glass tube, reconstituted with 200 µL mobile phase vortexed mixed for 2 min and centrifuged at 2500 g for 5 min. Following this, a 20 µL aliquot of supernatant was injected into the HPLC system for analysis.
GAE was separated on the high-performance liquid chromatography (HPLC), SPD-10A consisting of binary HPLC pump, ultraviolet detector, and a Rheodyne manual injector equipped with a 20 µl loop (Shimadzu, Japan). Separation was achieved on Kinetex Biphenyl RP 100 Å column (2.6 µm, 150 × 4.6 mm) (Phenomenex, Torrance) installed with phenyl cartridges (Phenomenex, Torrance). The system was controlled using class VP software (Shimadzu, Japan). The chromatographic separation of GAE was in approximately within 10 min, at room temperature by using the isocratic mobile phase mixture of ACN and 1%OPA (30:70, v/v) with pH maintained at 3.3. 20 µL of the samples were injected at a flow rate of 0.5 mL/min and the wavelength 270 nm was used for detection. […]

NF-kB = experiment: Quantification of NF-kB in liver and kidney by indirect ELISA; type: in vivo, mice; conditions: GAE 200 mg/kg oral 15 min after 5 Gy whole body irradiation, p < 0.05, upto 8 h
Method: as §1, with “The experiment was carried out in accordance to regulation and guideline of the, Committee for the purpose of control and supervision of Experiments on animals (CPCSEA), and study was approved by Institutional Animal Experimental Committee (IAEC), Institute of Nuclear Medicine & Allied Science, Delhi, India.” left out
Measurement of NF-kB activity was done in accordance to the manufacturer’s protocol purchased from BD-biosciences. […] After development of colour 50 µl of stop solution was added to the wells and absorbance was recorded at 490 nm. A standard curve was prepared from the data produced from the serial dilution of the pure NF-kB proteins with concentration on the x-axis (log scale) vs absorbance on the Y-axis (linear).

[2] = R + GAE group (60Co-γ 5 Gy, GAE 15 min post irradiation)
[3] = male, C57BL/6, mouse, po, GAE treated group
[4] = male, C57BL/6, mouse, po, R + GAE group (60Co-γ 5 Gy, GAE 15 min post irradiation)

CCOC(=O)c1cc(O)c(O)c(O)c1 [GAE, Ethyl 3,4,5-trihydroxybenzoate]
Clearance ([1]; GAE treated group): 0.017 ± 0.0005 mL/min | Cmax ([1]; GAE treated group): 4390.85 ± 285.20 ng/mL | Kel ([1]; GAE treated group): 0.026 ± 0.003 | Clearance [1, 2]: 0.07 ± 0.01 mL/min | Kel [1, 2]: 0.025 ± 0.02 | AUC(0-t) [1, 3]: 2920 ng·h/mL | Tmax [1, 3]: ~15 min | half-life [1, 3]: 26.5 ± 3.2 min | AUC [1, 3]: 2930 ng·h/mL | Cmax ([1]; male, C57BL/6, mouse, po, GAE treated group, read-out: Cmax): 4390 ± 285 ng/mL | AUC(0-t) [1, 4]: 1070 ng·h/mL | Tmax [1, 4]: ~15 min | half-life [1, 4]: 22.4 ± 3.6 min | AUC [1, 4]: 1070 ng·h/mL | Cmax ([1]; male, C57BL/6, mouse, po, R + GAE group (60Co-γ 5 Gy, GAE 15 min post irradiation), read-out: Cmax): 3390 ± 78.1 ng/mL | NF-kB level/expression in liver and kidney compared to irradiated mice (NF-kB): inhibits NF-kB expression; also recorded: significant minimal expression; also recorded: significantly inhibits; also recorded: significantly reduces
